From PubChem BioAssay AID1918949 (Molecular Pharmacology Branch, DTP, NCI, 2023)
Several values for one entry are separate records, joined by “and”; a condition that tells them apart may be missing. Identical values can stand only once. Values belong to the molecule of their own block, whether it stands above or below them.

Test system: K24384-001-R-PDC complex spheroid viability
Assay: Anticancer human tumor K24384-001-R-PDC patient-derived pancreatic adenocarcinoma cell line growth inhibition
Settings: for viability, T/C: stronger effect = lower value
Outline: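 Drug combinations with the LSD1 inhibitor iadademstat tested on tumor cells co-cultured as spheroids with endothelial cells and mesenchymal stem cells. Concentrations descended in half-log increments from clinical Cmax or 10 microM.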

[1] = curve of first compound, second compound 0.1 µM
[2] = curve of first compound, second compound 0.316 µM
[3] = curve of first compound, second compound 1 µM
[4] = curve of first compound, second compound 3.16 µM
[5] = curve of first compound, second compound 10 µM
[6] = second compound 0.1 µM, first compound 0.000949 µM
[7] = second compound 0.1 µM, first compound 0.003 µM
[8] = second compound 0.1 µM, first compound 0.00949 µM
[9] = second compound 0.1 µM, first compound 0.03 µM
[10] = second compound 0.1 µM, first compound 0.0949 µM
[11] = second compound 0.1 µM, first compound 0.3 µM
[12] = second compound 0.316 µM, first compound 0.000949 µM
[13] = second compound 0.316 µM, first compound 0.003 µM
[14] = second compound 0.316 µM, first compound 0.00949 µM
[15] = second compound 0.316 µM, first compound 0.03 µM
[16] = second compound 0.316 µM, first compound 0.0949 µM
[17] = second compound 0.316 µM, first compound 0.3 µM
[18] = second compound 1 µM, first compound 0.000949 µM
[19] = second compound 1 µM, first compound 0.003 µM
[20] = second compound 1 µM, first compound 0.00949 µM
[21] = second compound 1 µM, first compound 0.03 µM
[22] = second compound 1 µM, first compound 0.0949 µM
[23] = second compound 1 µM, first compound 0.3 µM
[24] = second compound 3.16 µM, first compound 0.000949 µM
[25] = second compound 3.16 µM, first compound 0.003 µM
[26] = second compound 3.16 µM, first compound 0.00949 µM
[27] = second compound 3.16 µM, first compound 0.03 µM
[28] = second compound 3.16 µM, first compound 0.0949 µM
[29] = second compound 3.16 µM, first compound 0.3 µM
[30] = second compound 10 µM, first compound 0.000949 µM
[31] = second compound 10 µM, first compound 0.003 µM
[32] = second compound 10 µM, first compound 0.00949 µM
[33] = second compound 10 µM, first compound 0.03 µM
[34] = second compound 10 µM, first compound 0.0949 µM
[35] = second compound 10 µM, first compound 0.3 µM
[36] = second compound 0.1 µM, first compound 0.0316 µM
[37] = second compound 0.1 µM, first compound 0.1 µM
[38] = second compound 0.316 µM, first compound 0.0316 µM
[39] = second compound 0.316 µM, first compound 0.1 µM
[40] = second compound 1 µM, first compound 0.0316 µM
[41] = second compound 1 µM, first compound 0.1 µM
[42] = second compound 3.16 µM, first compound 0.0316 µM
[43] = second compound 3.16 µM, first compound 0.1 µM
[44] = second compound 10 µM, first compound 0.0316 µM
[45] = second compound 10 µM, first compound 0.1 µM
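Also: spheroids exposed to agents for seven days before luminescence viability reading.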
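For viability, T/C in this document: 100% = DMSO vehicle control viability.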

SMILES: Nc1ccn(C2OC(CO)C(O)C2(F)F)c(=O)n1 (configuration not stated) + NC1CC1c1ccc(-c2cccc(O)c2)cc1
IC50 [1]: 28.3 nM | IC50 [2]: 43 nM | IC50 [3]: 38.1 nM | IC50 [4]: 46 nM | IC50 [5]: 90.9 nM | viability, T/C [6]: 82.5% | viability, T/C [7]: 72.9% | viability, T/C [8]: 63.4% | viability, T/C [9]: 48% | viability, T/C [10]: 41.9% | viability, T/C [11]: 37.2% | viability, T/C [12]: 87.9% | viability, T/C [13]: 73.4% | viability, T/C [14]: 68% | viability, T/C [15]: 49.5% | viability, T/C [16]: 44.9% | viability, T/C [17]: 35.8% | viability, T/C [18]: 75% | viability, T/C [19]: 84.5% | viability, T/C [20]: 63.6% | viability, T/C [21]: 53.2% | viability, T/C [22]: 41.1% | viability, T/C [23]: 32% | viability, T/C [24]: 98.5% | viability, T/C [25]: 81.2% | viability, T/C [26]: 67.1% | viability, T/C [27]: 56% | viability, T/C [28]: 42.1% | viability, T/C [29]: 31.5% | viability, T/C [30]: 103% | viability, T/C [31]: 99% | viability, T/C [32]: 95.5% | viability, T/C [33]: 69.3% | viability, T/C [34]: 51.3% | viability, T/C [35]: 40.2%

SMILES: CC[C@@]1(O)C(=O)OCc2c1cc1n(c2=O)Cc2cc3c(CN(C)C)c(O)ccc3nc2-1 + NC1CCC(NC2CC2c2ccccc2)CC1
IC50 [1]: 89.9 nM | IC50 [2]: > 100 nM | IC50 [3]: 88.6 nM | IC50 [4]: 84.5 nM | IC50 [5]: > 100 nM | viability, T/C (second compound 0.1 µM, first compound 0.000316 µM): 93.1% | viability, T/C (second compound 0.1 µM, first compound 0.001 µM): 87.2% | viability, T/C (second compound 0.1 µM, first compound 0.00316 µM): 77.6% | viability, T/C (second compound 0.1 µM, first compound 0.01 µM): 68.9% | viability, T/C [36]: 61.2% | viability, T/C [37]: 48.1% | viability, T/C (second compound 0.316 µM, first compound 0.000316 µM): 99.3% | viability, T/C (second compound 0.316 µM, first compound 0.001 µM): 81.2% | viability, T/C (second compound 0.316 µM, first compound 0.00316 µM): 82.3% | viability, T/C (second compound 0.316 µM, first compound 0.01 µM): 84% | viability, T/C [38]: 70.2% | viability, T/C [39]: 49.6% | viability, T/C (second compound 1 µM, first compound 0.000316 µM): 89.5% | viability, T/C (second compound 1 µM, first compound 0.001 µM): 82.7% | viability, T/C (second compound 1 µM, first compound 0.00316 µM): 75.5% | viability, T/C (second compound 1 µM, first compound 0.01 µM): 59% | viability, T/C [40]: 54.6% | viability, T/C [41]: 49% | viability, T/C (second compound 3.16 µM, first compound 0.000316 µM): 93.7% | viability, T/C (second compound 3.16 µM, first compound 0.001 µM): 91.8% | viability, T/C (second compound 3.16 µM, first compound 0.00316 µM): 81% | viability, T/C (second compound 3.16 µM, first compound 0.01 µM): 77% | viability, T/C [42]: 64.5% | viability, T/C [43]: 47% | viability, T/C (second compound 10 µM, first compound 0.000316 µM): 101% | viability, T/C (second compound 10 µM, first compound 0.001 µM): 88.2% | viability, T/C (second compound 10 µM, first compound 0.00316 µM): 88.7% | viability, T/C (second compound 10 µM, first compound 0.01 µM): 61.7% | viability, T/C [44]: 53.9% | viability, T/C [45]: 49.8%

IC50 (curve of compound): 45.2 nM and 32.6 nM
SMILES: O=C(C=Cn1cnc(-c2cc(C(F)(F)F)cc(C(F)(F)F)c2)n1)NNc1cnccn1
viability, T/C (compound 0.00316 µM): 74% and 75.6% | viability, T/C (compound 0.01 µM): 61.5% and 68% | viability, T/C (compound 0.0316 µM): 60.1% and 51.8% | viability, T/C (compound 0.1 µM): 35.2% and 28.2% | viability, T/C (compound 0.316 µM): 29.8% and 27.7% | viability, T/C (compound 1 µM): 19.4% and 19.7%

SMILES: CC1(C)CCC(CN2CCN(c3ccc(C(=O)NS(=O)(=O)c4ccc(NCC5CCOCC5)c([N+](=O)[O-])c4)c(Oc4cnc5[nH]ccc5c4)c3)CC2)=C(c2ccc(Cl)cc2)C1 + NC1CCC(NC2CC2c2ccccc2)CC1
IC50 [1]: 3080 nM | IC50 [2]: 2740 nM | IC50 [3]: 2280 nM | IC50 [4]: 3110 nM | IC50 [5]: 3730 nM | viability, T/C [36]: 80.2% | viability, T/C [37]: 95.5% | viability, T/C (second compound 0.1 µM, first compound 0.316 µM): 85% | viability, T/C (second compound 0.1 µM, first compound 1 µM): 89.8% | viability, T/C (second compound 0.1 µM, first compound 3.16 µM): 49.1% | viability, T/C (second compound 0.1 µM, first compound 10 µM): 0.77% | viability, T/C [38]: 79.5% | viability, T/C [39]: 90.2% | viability, T/C (second compound 0.316 µM, first compound 0.316 µM): 88.9% | viability, T/C (second compound 0.316 µM, first compound 1 µM): 94.5% | viability, T/C (second compound 0.316 µM, first compound 3.16 µM): 44.6% | viability, T/C (second compound 0.316 µM, first compound 10 µM): 0.44% | viability, T/C [40]: 84% | viability, T/C [41]: 86% | viability, T/C (second compound 1 µM, first compound 0.316 µM): 81.6% | viability, T/C (second compound 1 µM, first compound 1 µM): 81.6% | viability, T/C (second compound 1 µM, first compound 3.16 µM): 37.6% | viability, T/C (second compound 1 µM, first compound 10 µM): 0.69% | viability, T/C [42]: 87.3% | viability, T/C [43]: 72.9% | viability, T/C (second compound 3.16 µM, first compound 0.316 µM): 77.3% | viability, T/C (second compound 3.16 µM, first compound 1 µM): 92.2% | viability, T/C (second compound 3.16 µM, first compound 3.16 µM): 49.6% | viability, T/C (second compound 3.16 µM, first compound 10 µM): 0.87% | viability, T/C [44]: 73.9% | viability, T/C [45]: 92.9% | viability, T/C (second compound 10 µM, first compound 0.316 µM): 77.8% | viability, T/C (second compound 10 µM, first compound 1 µM): 76.9% | viability, T/C (second compound 10 µM, first compound 3.16 µM): 58.4% | viability, T/C (second compound 10 µM, first compound 10 µM): 0.69%

SMILES: Nc1ccn(C2OC(CO)C(O)C2(F)F)c(=O)n1 (configuration not stated) + NC1CCC(NC2CC2c2ccccc2)CC1
IC50 [1]: 57.9 nM | IC50 [2]: 49.6 nM | IC50 [3]: 44.5 nM | IC50 [4]: 87.6 nM | IC50 [5]: 53.2 nM | viability, T/C [6]: 77.4% | viability, T/C [7]: 68.3% | viability, T/C [8]: 67.8% | viability, T/C [9]: 53.5% | viability, T/C [10]: 46.8% | viability, T/C [11]: 33% | viability, T/C [12]: 73.9% | viability, T/C [13]: 72% | viability, T/C [14]: 67.3% | viability, T/C [15]: 52.9% | viability, T/C [16]: 46% | viability, T/C [17]: 39.5% | viability, T/C [18]: 85.9% | viability, T/C [19]: 68.1% | viability, T/C [20]: 62.4% | viability, T/C [21]: 50.4% | viability, T/C [22]: 48% | viability, T/C [23]: 41.9% | viability, T/C [24]: 84.3% | viability, T/C [25]: 77.5% | viability, T/C [26]: 70.4% | viability, T/C [27]: 59.9% | viability, T/C [28]: 48.7% | viability, T/C [29]: 41.3% | viability, T/C [30]: 66.7% | viability, T/C [31]: 68.5% | viability, T/C [32]: 69.3% | viability, T/C [33]: 54.6% | viability, T/C [34]: 45.8% | viability, T/C [35]: 39.2%

SMILES: Nc1ncn(C2CC(O)C(CO)S2)c(=O)n1 (configuration not stated) + NC1CCC(NC2CC2c2ccccc2)CC1
IC50 [1]: > 300 nM | IC50 [2]: > 300 nM | IC50 [3]: > 300 nM | IC50 [4]: > 300 nM | IC50 [5]: > 300 nM | viability, T/C [6]: 92.8% | viability, T/C [7]: 85.4% | viability, T/C [8]: 93% | viability, T/C [9]: 70.1% | viability, T/C [10]: 78.1% | viability, T/C [11]: 63.3% | viability, T/C [12]: 97.4% | viability, T/C [13]: 77.4% | viability, T/C [14]: 80.6% | viability, T/C [15]: 79.7% | viability, T/C [16]: 85.1% | viability, T/C [17]: 59.5% | viability, T/C [18]: 82.2% | viability, T/C [19]: 78.1% | viability, T/C [20]: 105% | viability, T/C [21]: 78.5% | viability, T/C [22]: 73.5% | viability, T/C [23]: 65.2% | viability, T/C [24]: 98.1% | viability, T/C [25]: 97.9% | viability, T/C [26]: 85% | viability, T/C [27]: 75% | viability, T/C [28]: 81.7% | viability, T/C [29]: 48.5% | viability, T/C [30]: 90.3% | viability, T/C [31]: 98.6% | viability, T/C [32]: 71.2% | viability, T/C [33]: 79.5% | viability, T/C [34]: 69.5% | viability, T/C [35]: 61.9%
